Measured values as given in US8258159B2, “Inhibitors of the α2β1/GPIa-IIa integrin” (The Trustees Of The University Of Pennsylvania, priority 2005, dated 2012).
*1 amine or outer side, *2 acyl side, *3 side chain or, on linkers, in order; H or OH if unused. Where a SMILES comes first, the peptide text is derived from it. Side-chain parts run from the residue outwards. [ ]: non-standard residue; d: D form. The star is where a group is joined. Cbz = O=C(OCc1ccccc1)*; Dap = NC[C@H](N)C(=O)O; CO = O=C([*:1])[*:2]; NHBn = c1ccc(CN*)cc1; Bz = O=C(c1ccccc1)*

Molecular target: T1, α2β1 integrin (Homo sapiens, UniProt P05556+P17301)
T1 construct: endogenous in cells; host or cells: gel-filtered human platelets of a single donor
T1 sequence (P17301 30-1181): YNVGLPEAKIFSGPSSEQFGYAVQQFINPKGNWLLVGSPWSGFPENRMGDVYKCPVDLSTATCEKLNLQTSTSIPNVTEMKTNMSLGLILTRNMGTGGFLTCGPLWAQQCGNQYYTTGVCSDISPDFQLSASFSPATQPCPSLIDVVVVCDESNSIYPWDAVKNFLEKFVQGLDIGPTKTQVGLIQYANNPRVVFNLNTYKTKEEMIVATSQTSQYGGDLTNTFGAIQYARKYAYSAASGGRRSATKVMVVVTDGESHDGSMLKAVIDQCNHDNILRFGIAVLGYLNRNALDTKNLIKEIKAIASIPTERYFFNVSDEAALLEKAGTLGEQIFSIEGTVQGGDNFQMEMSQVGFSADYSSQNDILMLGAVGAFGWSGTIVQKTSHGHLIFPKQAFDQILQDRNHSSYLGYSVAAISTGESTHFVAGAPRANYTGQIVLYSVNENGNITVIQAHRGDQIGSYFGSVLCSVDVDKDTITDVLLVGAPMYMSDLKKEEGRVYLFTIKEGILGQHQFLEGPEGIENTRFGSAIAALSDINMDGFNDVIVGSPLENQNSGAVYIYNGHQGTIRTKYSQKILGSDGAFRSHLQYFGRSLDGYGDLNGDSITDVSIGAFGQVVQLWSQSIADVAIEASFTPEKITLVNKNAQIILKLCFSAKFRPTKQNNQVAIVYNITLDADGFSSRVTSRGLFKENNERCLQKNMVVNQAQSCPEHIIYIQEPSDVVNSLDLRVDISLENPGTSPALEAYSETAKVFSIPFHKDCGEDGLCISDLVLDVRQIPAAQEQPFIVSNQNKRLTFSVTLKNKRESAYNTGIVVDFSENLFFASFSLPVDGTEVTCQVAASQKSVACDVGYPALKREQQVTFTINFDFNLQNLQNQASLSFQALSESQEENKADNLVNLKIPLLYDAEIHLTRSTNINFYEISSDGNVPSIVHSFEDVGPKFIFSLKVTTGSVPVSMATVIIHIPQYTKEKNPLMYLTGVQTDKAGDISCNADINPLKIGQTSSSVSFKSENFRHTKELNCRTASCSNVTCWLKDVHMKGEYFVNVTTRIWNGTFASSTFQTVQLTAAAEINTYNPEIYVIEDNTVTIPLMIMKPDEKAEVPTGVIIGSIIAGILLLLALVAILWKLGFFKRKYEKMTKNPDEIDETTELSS
T1 sequence (P05556 21-798): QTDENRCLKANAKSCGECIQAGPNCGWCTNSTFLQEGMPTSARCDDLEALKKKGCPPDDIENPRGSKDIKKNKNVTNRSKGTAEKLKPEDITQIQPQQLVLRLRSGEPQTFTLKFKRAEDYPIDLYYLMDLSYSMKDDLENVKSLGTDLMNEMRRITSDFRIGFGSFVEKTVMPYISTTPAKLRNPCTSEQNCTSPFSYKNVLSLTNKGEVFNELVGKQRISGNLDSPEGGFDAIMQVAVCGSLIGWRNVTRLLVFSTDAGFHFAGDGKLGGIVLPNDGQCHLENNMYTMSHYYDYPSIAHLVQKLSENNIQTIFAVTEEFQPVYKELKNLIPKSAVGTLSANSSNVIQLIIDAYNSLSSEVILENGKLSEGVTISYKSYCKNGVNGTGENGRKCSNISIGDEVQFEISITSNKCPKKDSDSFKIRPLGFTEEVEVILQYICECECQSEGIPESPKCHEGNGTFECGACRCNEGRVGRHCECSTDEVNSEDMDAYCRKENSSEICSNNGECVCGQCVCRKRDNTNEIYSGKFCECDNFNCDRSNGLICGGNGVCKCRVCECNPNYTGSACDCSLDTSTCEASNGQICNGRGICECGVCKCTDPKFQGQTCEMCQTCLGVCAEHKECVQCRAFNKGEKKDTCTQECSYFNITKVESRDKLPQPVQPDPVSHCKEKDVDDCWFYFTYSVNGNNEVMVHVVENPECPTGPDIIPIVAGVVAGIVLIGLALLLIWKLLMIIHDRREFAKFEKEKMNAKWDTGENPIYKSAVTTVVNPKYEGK
Experiment: Platelet adhesion assay (human platelet adhesion to type I collagen)
Format: cell-based
Details: human platelet adhesion to type I (soluble, monomeric) collagen, static conditions; single donor; read-out: IC50
Experimental: The inhibitory strength of the compounds of the present disclosure was analyzed as against platelet adhesion to type I collagen. Ninety-six well flat bottom microtiter plates (Immulon 2, Dynatech Laboratories, Chantilly, Va.) were coated with collagen, purified human fibrinogen, or bovine serum albumin, each dissolved in 50 mM NaHCO3 buffer, pH 8.0, containing 150 mM NaCl as previously described. See Bennett J S, Chan C, Vilaire G, Mousa S A, DeGrado W F. Agonist-Activated αvβ3 on Platelets and Lymphocytes Binds to the Matrix Protein Osteopontin. J Biol Chem. 272, 8137-814) (1997). Unoccupied protein binding sites on the wells were blocked with 5 mg/ml bovine serum albumin dissolved in the same buffer. Human platelets were isolated from blood anticoagulated with 0.1 volume 3.8% sodium citrate by gel-filtration using a 4 mM HEPES buffer, pH 7.4, containing 135 mM NaCl, 2.7 mM KCl, 5.6 mM glucose, 3.3 mM NaH2PO4, 0.35 mg/ml bovine serum albumin and various concentrations of CaCl2 or MgCl2 according to the experiment. One hundred μl aliquots of the gel-filtered platelet suspension containing 1-2×10^8 platelets were added to the protein-coated wells in the absence or presence of a platelet agonist. Following an incubation for 30 min at 37° C. without agitation, the plates were washed 4 times with the Tris-buffered NaCl, containing 2 mM MgCl2, pH 7.4, and the number of adherent platelets measured using the colorimetric assay reported by Bellavite P, Andrioli G, Guzzo P, et al. A colorimetric method for the measurement of platelet adhesion in microtiter plates. Anal Biochem. 216, 444-450 (1994). Briefly, 150 μl of a 0.1 M citrate buffer, pH 5.4, containing 5 mM p-nitrophenyl phosphate and 0.1% Triton X-100 was added to the wells after washing. After an incubation for 60 min at room temperature in the absence of ambient light, color was developed by the addition of 100 μl of 2N NaOH and, using EL800 Universal Microplate Reader (Bio-Tek Instruments, Inc., Winooski, Vt.), read in microtiter plate reader at 405 nm.
The potencies of the compounds of the present disclosure were determined by testing the ability of a range of concentrations of each compound to inhibit human platelet adhesion to soluble collagen under static conditions. Owing to the fact that soluble collagen is a specific ligand for α2β1 integrin, this is an accepted method of assessing α2β1 inhibition on platelets.
IC50 values were determined by using the platelets of a single donor. In cases where multiple assays were performed, the reported results reflect the average IC50 value derived from the separate assays.

IC50 | Compound
0.143 µM | O=C(NCc1ccccc1)NC[C@H](NC(=O)[C@@H]1C=CCN1S(=O)(=O)c1ccccc1)C(=O)O (stereo in doubt) [Compound 52, 2-[(1-Benzenesulfonyl-2,5-dihydro-1H-pyrrole-2-carbonyl)-amino]-3-(3-benzyl-ureido)-propionic acid]
2.3 µM | O=C(NC[C@H](NC(=O)[C@@H]1CCCN1S(=O)(=O)c1ccc([N+](=O)[O-])cc1)C(=O)O)OCc1ccccc1 [Compound 2, 3-Benzyloxycarbonylamino-2-{[1-(4-nitro-benzenesulfonyl)-pyrrolidine-2-carbonyl]-amino}-propionic acid]
2.31 µM | O=C(NC[C@H](NC(=O)[C@@H]1CCCN1S(=O)(=O)c1ccc([N+](=O)[O-])cc1)C(=O)O)c1ccccc1 [Compound 3, 3-Benzoylamino-2-{[1-(4-nitro-benzenesulfonyl)-pyrrolidine-2-carbony]-amino}-propionic acid]
4.75 µM | O=C(CCc1ccccc1)NC[C@H](NC(=O)[C@@H]1CCCN1S(=O)(=O)c1ccc([N+](=O)[O-])cc1)C(=O)O [Compound 4, 2-{[1-(4-Nitro-benzenesulfonyl)-pyrrolidine-2-carbonyl]-amino}-3-(3-phenyl-propionylamino)-propionic acid]
0.105 µM | O=C(NCc1ccccc1)NC[C@H](NC(=O)[C@@H]1CCCN1S(=O)(=O)c1ccc([N+](=O)[O-])cc1)C(=O)O [Compound 5, 3-(3-Benzyl-ureido)-2-{[1-(4-nitro-benzenesulfonyl)-pyrrolidine-2-carbonyl]-amino}-propionic acid]
22.3 µM | CC(C)(C)OC(=O)CC[C@H](NC(=O)[C@@H]1CCCN1S(=O)(=O)c1ccc([N+](=O)[O-])cc1)C(=O)O [Compound 6, 2-{[1-(4-Nitro-benzenesulfonyl)-pyrrolidine-2-carbonyl]-amino}-pentanedioic acid 5-tert-butyl ester]
0.985 µM | O=C(NCc1ccccc1Cl)NC[C@H](NC(=O)[C@@H]1CCCN1S(=O)(=O)c1ccc([N+](=O)[O-])cc1)C(=O)O [Compound 7, 3-[3-(2-Chloro-benzyl)-ureido]-2-{[1-(4-nitro-benzenesulfonyl)-pyrrolidine-2-carbonyl]-amino}-propionic acid]
1.62 µM | O=C(NCc1ccc(Br)cc1)NC[C@H](NC(=O)[C@@H]1CCCN1S(=O)(=O)c1ccc([N+](=O)[O-])cc1)C(=O)O [Compound 8, 3-[3-(4-Bromo-benzyl)-ureido]-2-{[1-(4-nitro-benzenesulfonyl)-pyrrolidine-2-carbonyl]-amino}-propionic acid]
3 µM | O=C(NC[C@H](NC(=O)[C@@H]1CCCN1S(=O)(=O)c1ccc([N+](=O)[O-])cc1)C(=O)O)Nc1ccccc1 [Compound 9, 2-{[1-(4-Nitro-benzenesulfonyl)-pyrrolidine-2-carbonyl]-amino}-3-(3-phenyl-ureido)-propionic acid]
4.6 µM | O=C(NC[C@H](NC(=O)[C@@H]1CCCN1S(=O)(=O)c1ccc([N+](=O)[O-])cc1)C(=O)O)Nc1ccc([N+](=O)[O-])cc1 [Compound 10, 2-{[1-(4-Nitro-benzenesulfonyl)-pyrrolidine-2-carbonyl]-amino}-3-[3-(4-nitro-phenyl)-ureido]-propionic acid]
5.06 µM | O=C(NC[C@H](NC(=O)[C@@H]1CCCN1S(=O)(=O)c1ccc([N+](=O)[O-])cc1)C(=O)O)Nc1ccc(-c2ccccc2)cc1 [Compound 11, 3-(3-Biphenyl-4-yl-ureido)-2-{[1-(4-nitro-benzenesulfonyl)-pyrrolidine-2-carbonyl]-amino}-propionic acid]
0.81 µM | COc1ccc(CNC(=O)NC[C@H](NC(=O)[C@@H]2CCCN2S(=O)(=O)c2ccc([N+](=O)[O-])cc2)C(=O)O)cc1 [Compound 12, 3-[3-(4-Methoxy-benzyl)-ureido]-2-{[1-(4-nitro-benzenesulfonyl)-pyrrolidine-2-carbonyl]-amino}-propionic acid]
1.5 µM | COc1ccccc1CNC(=O)NC[C@H](NC(=O)[C@@H]1CCCN1S(=O)(=O)c1ccc([N+](=O)[O-])cc1)C(=O)O [Compound 13, 3-[3-(2-Methoxy-benzyl)-ureido]-2-{[1-(4-nitro-benzenesulfonyl)-pyrrolidine-2-carbonyl]-amino}-propionic acid]
0.79 µM | COc1cccc(CNC(=O)NC[C@H](NC(=O)[C@@H]2CCCN2S(=O)(=O)c2ccc([N+](=O)[O-])cc2)C(=O)O)c1 [Compound 14, 3-[3-(3-Methoxy-benzyl)-ureido]-2-{[1-(4-nitro-benzenesulfonyl)-pyrrolidine-2-carbonyl]-amino}-propionic acid]
4.1 µM | O=C(NCc1ccc(-c2ccccc2)cc1)NC[C@H](NC(=O)[C@@H]1CCCN1S(=O)(=O)c1ccc([N+](=O)[O-])cc1)C(=O)O [Compound 15, 3-(3-Biphenyl-4-ylmethyl-ureido)-2-{[1-(4-nitro-benzenesulfonyl)-pyrrolidine-2-carbonyl]-amino}-propionic acid]
3.6 µM | CCCNC(=O)NC[C@H](NC(=O)[C@@H]1CCCN1S(=O)(=O)c1ccc([N+](=O)[O-])cc1)C(=O)O [Compound 16, 2-{[1-(4-Nitro-benzenesulfonyl)-pyrrolidine-2-carbonyl]-amino}-3-(3-propyl-ureido)-propionic acid]
1.7 µM | CC(C)(C)NC(=O)NC[C@H](NC(=O)[C@@H]1CCCN1S(=O)(=O)c1ccc([N+](=O)[O-])cc1)C(=O)O [Compound 17, 3-(3-tert-Butyl-ureido)-2-{[1-(4-nitro-benzenesulfonyl)-pyrrolidine-2-carbonyl]-amino}-propionic acid]
0.46 µM | Nc1ccc(CNC(=O)NC[C@H](NC(=O)[C@@H]2CCCN2S(=O)(=O)c2ccc([N+](=O)[O-])cc2)C(=O)O)cc1 [Compound 19, 3-[3-(4-Amino-benzyl)-ureido]-2-{[1-(4-nitro-benzenesulfonyl)-pyrrolidine-2-carbonyl]-amino}-propionic acid]
0.131 µM | CC(=O)Nc1ccc(S(=O)(=O)N2CCC[C@H]2C(=O)N[C@@H](CNC(=O)NCc2ccccc2)C(=O)O)cc1 [Compound 21, 2-{[1-(4-Acetylamino-benzenesulfonyl)-pyrrolidine-2-carbonyl]-amino}-3-(3-benzyl-ureido)-propionic acid]
11.7 µM | O=C(NCc1ccccc1)NC[C@H](NC(=O)[C@@H]1CCCN1S(=O)(=O)Cc1ccccc1)C(=O)O [Compound 22, 3-(3-Benzyl-ureido)-2-[(1-phenylmethanesulfonyl-pyrrolidine-2-carbonyl)-amino]-propionic acid]
28 µM | O=C(NCc1ccccc1)NC[C@H](NC(=O)[C@@H]1CCCN1C(=O)OCc1ccccc1)C(=O)O [Compound 23, 2-[2-(3-Benzyl-ureido)-1-carboxy-ethylcarbarmoyl]-pyrrolidine-1-carboxylic acid benzyl ester] (Cbz-Pro-[Dap]([CO-NHBn])-OH)
0.287 µM | O=C(NCc1ccccc1)NC[C@H](NC(=O)[C@@H]1CCCN1S(=O)(=O)c1ccc(-c2ccccc2)cc1)C(=O)O [Compound 24, 3-(3-Benzyl-ureido)-2-{[1-(biphenyl-4-sulfonyl)-pyrrolidine-2-carbonyl]-amino}-propionic acid]
2.03 µM | Nc1ccc(S(=O)(=O)N2CCC[C@H]2C(=O)N[C@H](CNC(=O)NCc2ccccc2)C(=O)O)cc1 [Compound 25, 2-{[1-(4-Amino-benzenesulfonyl)-pyrrolidine-2-carbonyl]-amino}-3-(3-benzyl-ureido)-propionic acid]
1000 µM | O=C(NCc1ccccc1)NC[C@H](NC(=O)[C@@H]1CCCN1C(=O)c1ccccc1)C(=O)O [Compound 26, 2-[(1-Benzoyl-pyrrolidine-2-carbonyl)-amino]-3-(3-benzyl-ureido)-propionic acid] (Bz-Pro-[Dap]([CO-NHBn])-OH)

Compound | IC50
CC(C)(C)OC(=O)NC[C@H](NC(=O)[C@@H]1CCCN1S(=O)(=O)c1ccc([N+](=O)[O-])cc1)C(=O)O [Compound 1, 3-tert-Butoxycarbonylamino-2-{[1-(4-nitro-benzenesulfonyl)-pyrrolidine-2-carbonyl]-amino}-propionic acid] | 2.62 µM
CC(C)(C)OC(=O)Nc1ccc(CNC(=O)NC[C@H](NC(=O)[C@@H]2CCCN2S(=O)(=O)c2ccc([N+](=O)[O-])cc2)C(=O)O)cc1 [Compound 18, 3-[3-(4-tert-Butoxycarbonylamino-benzyl)-ureido]-2-{[1-(4-nitro-benzenesulfonyl)-pyrrolidine-2-carbonyl]-amino}-propionic acid] | 1.77 µM
